We go through 15 molecules from US12528774B2, “Thiosemicarbazone compounds and uses thereof” (The Regents of the University of California, priority 2019, dated 2026).

Molecules are shown by their SMILES. Read-outs that look alike come from different tables or passages of the source.

The assay relates to MIAPACA2 cells. Description: Proliferation assay (CellTiter-Glo, 72 h) in MIAPACA2 cells. It is filed as cell-based, human. As to conditions: for IC90: MIAPACA2, 72 h; for potency relative to non-fluorinated analog: IC90 without copper, analog of same 4′ amine series (HCT1, HCT6 or HCT11); for increase in potency under copper supplementation versus non-copper-supplemented IC90: 20 μM CuCl2. As to the method: IC90 values against MIAPACA2 cells was first determined in normal cell culture conditions (DMEM media and 10% FBS). Compounds were separated into three series (4′ primary amines, 4′ secondary amines, 4′ tertiary amines) to reflect the relative degrees of 4′ amine methylation. […] (Refs 41, 42).
HCT compounds are known to be copper chelators. (Ref. 32). To test whether the compounds described herein were similarly potentiated, the IC90 (+Cu IC90) values were determined against MIAPACA2 cells in media supplemented with physiologically relevant levels of copper (DMEM media+10% FBS+20 μM CuCl2). MIAPACA2 cells were treated with the indicated HCT±20 μM Cu(II) for 72 hours, then cell viability was measured with CellTiter-Glo to determine IC90 values.
(§1) Proliferation assay: Cells were plated in 384-well plates (500 cells/well for adherent cell lines in 30 μl volume). Drugs were serially diluted to the desired concentrations and an equivalent volume of DMSO was added to vehicle control. Following 72 h incubation, ATP content was measured using CellTiter-Glo reagent according to manufacturer's instructions (Promega, CellTiter-Glo Luminescent Cell Viability Assay), and analyzed by SpectraMax luminometer (Molecular Devices). IC50 and IC90 values, concentrations required to inhibit proliferation by 50% and 90% respectively compared to DMSO treated cells, were calculated using Prism 6.0 h (Graphpad Software).
as §1, with “assay.” for “assay:”, “Software). The 430-member protein kinase inhibitor library used for the chemical genomics screen was purchased from Selleckchem, Catalog No. L1200.” for “Software).”
For orientation: Cellular ATP, detected with luciferase, serves as a proxy for viable cell number.

Where [1] appears, read: Homo sapiens, MIA PaCa-2, 72 h, DMEM + 10% FBS, no copper supplementation, read-out: IC90.
Setting [2] is: DMEM + 10% FBS + 20 μM CuCl2, read-out: +Cu(II) IC90.

On to `CN(C)C(=S)N/N=C/c1ncc(F)c2ccccc12` (mixture of isomers) [HCT12, (E)-2-((4-Fluoroisoquinolin-1-yl)methylene)-N,N-dimethylhydrazine-1-carbothioamide and (Z)-2-((4-Fluoroisoquinolin-1-yl)methylene)-N,N-dimethylhydrazine-1-carbothioamide], for which the “potency relative to non-fluorinated analog” value was “roughly 110 fold”. Also, the IC90 (as a rule, the concentration at which the effect reaches the 90% level) under setting [1] stood at 274 nM. In addition, under setting [2], the 90% effect concentration (IC90) came to 26.6 nM.

As for `CNc1cccc2c(/C=N/NC(N)=S)nccc12` [HCT4, (E)-2-((5-(Methylamino)isoquinolin-1-yl)methylene)hydrazine-1-carbothioamide, reference compound], the concentration for an effect of 90% (IC90) is 11500 nM under setting [1] and 5330 nM under setting [2].

Consider `CNC(=S)N/N=C/c1ncc(F)c2ccccc12` [HCT7, (E)-2-((4-Fluoroisoquinolin-1-yl)methylene)-N-methylhydrazine-1-carbothioamide], for which the “potency relative to non-fluorinated analog” value was “significantly more potent”. In addition, under setting [1], the IC90 amounted to 2080 nM. For the same molecule, the concentration for an effect of 90% (IC90) under setting [2] stood at 114 nM.

Take `CNc1c(F)ccc2c(/C=N/NC(=S)N(C)C)nccc12` (mixture of isomers) [HCT14, (E)-2-((6-Fluoro-5-(methylamino)isoquinolin-1-yl)methylene)-N,N-dimethylhydrazine-1-carbothioamide and (Z)-2-((6-Fluoro-5-(methylamino)isoquinolin-1-yl)methylene)-N,N-dimethylhydrazine-1-carbothioamide]: the IC90 amounted to 272 nM under setting [1] and 38.4 nM under setting [2].

On to `CNC(=S)N/N=C/c1nccc2c(N)cccc12` (mixture of isomers) [HCT10, 2-((5-Aminoisoquinolin-1-yl)methylene)-N-methylhydrazine-1-carbothioamide and (Z)-2-((5-Aminoisoquinolin-1-yl)methylene)-N-methylhydrazine-1-carbothioamide], for which the 90% effect concentration (IC90) reads like this: under setting [1], 11200 nM; under setting [2], 7870 nM.

For `CNC(=S)N/N=C/c1nccc2ccccc12` [HCT6, (E)-2-(isoquinolin-1-ylmethylene)-N-methylhydrazine-1-carbothioamide, reference compound], the “increase in potency under copper supplementation versus non-copper-supplemented IC90” value stood at 60 fold. The “increase in potency under copper supplementation versus non-copper-supplemented IC90” value (listed as 6) is recorded as “significantly increased”. Besides, under setting [1], the IC90 stood at 18700 nM. Further, under setting [2], the IC90 stood at 331 nM.

For `NC(=S)N/N=C/c1ncc(F)c2ccccc12` [HCT2, (E)-2-((4-Fluoroisoquinolin-1-yl)methylene)hydrazine-1-carbothioamide], the “potency relative to non-fluorinated analog” value is reported as “did not show an increase in potency”. Besides, the concentration for an effect of 90% (IC90) under setting [1] worked out at 24600 nM. The IC90 under setting [2] was 2060 nM.

In the case of `NC(=S)N/N=C/c1nccc2ccccc12` [HCT1, (E)-2-(isoquinolin-1-ylmethylene)hydrazine-1-carbothioamide, reference compound], the “increase in potency under copper supplementation versus non-copper-supplemented IC90” value is 10 fold. Also, the 90% effect concentration (IC90) under setting [1] stood at 18100 nM. The IC90 under setting [2] stood at 2210 nM.

With `CN(C)C(=S)N/N=C/c1nccc2ccccc12` (mixture of isomers) [HCT11, (E)-2-(Isoquinolin-1-ylmethylene)-N,N-dimethylhydrazine-1-carbothioamide and (Z)-2-(Isoquinolin-1-ylmethylene)-N,N-dimethylhydrazine-1-carbothioamide], the “increase in potency under copper supplementation versus non-copper-supplemented IC90” value came to 400 fold. Also, the “increase in potency under copper supplementation versus non-copper-supplemented IC90” value (listed as 11) is “significantly increased”. Further, the IC90 under setting [1] was 29600 nM. Besides, under setting [2], the IC90 was 73.7 nM.

As to `CNC(=S)N/N=C/c1nccc2c(NC)cccc12` [HCT9, E)-N-Methyl-2-((5-(methylamino)isoquinolin-1-yl)methylene)hydrazine-1-carbothioamide and (Z)—N-Methyl-2-((5-(methylamino)isoquinolin-1-yl)methylene)hydrazine-1-carbothioamide], the “increase in potency under copper supplementation versus non-copper-supplemented IC90” value was “significantly increased”. Moreover, the 90% effect concentration (IC90) under setting [1] amounted to 4240 nM. In addition, under setting [2], the IC90 amounted to 607 nM.

For the molecule `NC(=S)N/N=C/c1nccc2cc(F)ccc12` [HCT3, (E)-2-((6-Fluoroisoquinolin-1-yl)methylene)hydrazine-1-carbothioamide], the “potency relative to non-fluorinated analog” value was 3 fold. Also, under setting [1], the IC90 came to 5440 nM. For the same molecule, the IC90 under setting [2] was determined as 2040 nM.

In the case of `[Cl][Cu][Cl]` [Cu(II), CuCl2], the effect on proliferation result (20 μM Cu(II) alone) is recorded as “did not affect proliferation at all”.

Consider `CNC(=S)N/N=C/c1nccc2cc(F)ccc12` [HCT8, (E)-2-((6-Fluoroisoquinolin-1-yl)methylene)-N-methylhydrazine-1-carbothioamide], for which the “potency relative to non-fluorinated analog” value is “significantly more potent”. In addition, the IC90 under setting [1] worked out at 4080 nM. Also, under setting [2], the IC90 came out at 233 nM.

Regarding `CNc1cccc2c(/C=N/NC(=S)N(C)C)ncc(F)c12` (mixture of isomers) [HCT15, (E)-2-((4-Fluoro-5-(methylamino)isoquinolin-1-yl)methylene)-N,N-dimethylhydrazine-1-carbothioamide and (Z)-2-((4-Fluoro-5-(methylamino)isoquinolin-1-yl)methylene)-N,N-dimethylhydrazine-1-carbothioamide], the IC90 is, setting by setting: under setting [1], 327 nM; under setting [2], 42.3 nM.

Take `NC(=S)N/N=C/c1nccc2c(N)cccc12` [HCT5, (E)-2-((5-Aminoisoquinolin-1-yl)methylene)hydrazine-1-carbothioamide, reference compound]: the “increase in potency under copper supplementation versus non-copper-supplemented IC90” value was “attenuated”. Also, the IC90 under setting [1] was 40500 nM. Besides, under setting [2], the IC90 worked out at 71100 nM.
